Assays:
[1] = biological target: ERK2 (Homo sapiens, UniProt P28482); experiment: ERK2 inhibition assay (spectrophotometric coupled-enzyme assay); type: biochemical; conditions: read-out: ERK2 Inhibitory Activity (Ki class D-F)
Description: The IC50 was evaluated from the rate data as a function of inhibitor concentration. […] The compound numbers correspond to the compound numbers in Table 1.

[2] = biological target: T1, GSK-3β (AA 1–420) (Homo sapiens, UniProt P49841); experiment: GSK-3 inhibition assay (coupled enzyme system); type: biochemical; conditions: read-out: GSK3 Inhibitory Activity (Ki class)
T1 construct: GSK-3β (AA 1–420)
Description: Final substrate concentrations in the assay were 20 μM ATP (Sigma Chemicals, St Louis, Mo.) and 300 μM peptide (HSSPHQS(PO3H2)EDEEE, American Peptide, Sunnyvale, Calif.). Reactions were carried out at 30° C. and 20 nM GSK-3β. Final concentrations of the components of the coupled enzyme system were 2.5 mM phosphoenolpyruvate, 300 μM NADH, 30 μg/ml pyruvate kinase and 10 μg/ml lactate dehydrogenase.
An assay stock buffer solution was prepared containing all of the reagents listed above with the exception of ATP and the test compound of interest. The assay stock buffer'solution (175 μl) was incubated in a 96 well plate with 5 μl of the test compound of interest at final concentrations spanning 0.002 μM to 30 μM at 30° C. for 10 min. […] The reaction was initiated by the addition of 20 μl of ATP (final concentration 20 μM). Rates of reaction were obtained using a Molecular Devices Spectramax plate reader (Sunnyvale, Calif.) over 10 min at 30° C. The Ki values were determined from the rate data as a function of inhibitor concentration.
The compound numbers correspond to the compound numbers in Table 1.

T1 sequence (P49841 whole entry, species assumed, the tested form may be a part): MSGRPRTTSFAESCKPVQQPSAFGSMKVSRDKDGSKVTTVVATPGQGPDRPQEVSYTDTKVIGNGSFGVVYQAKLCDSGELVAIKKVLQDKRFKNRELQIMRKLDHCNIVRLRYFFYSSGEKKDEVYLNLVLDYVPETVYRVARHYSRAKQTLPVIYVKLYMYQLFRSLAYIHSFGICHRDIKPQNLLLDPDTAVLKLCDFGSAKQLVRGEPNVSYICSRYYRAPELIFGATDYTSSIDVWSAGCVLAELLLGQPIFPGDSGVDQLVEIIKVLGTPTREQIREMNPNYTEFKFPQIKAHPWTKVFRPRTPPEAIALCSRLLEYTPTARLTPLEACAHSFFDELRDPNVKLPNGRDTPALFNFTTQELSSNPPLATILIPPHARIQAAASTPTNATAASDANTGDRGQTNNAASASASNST
Sequence of ERK2 (P28482 whole entry): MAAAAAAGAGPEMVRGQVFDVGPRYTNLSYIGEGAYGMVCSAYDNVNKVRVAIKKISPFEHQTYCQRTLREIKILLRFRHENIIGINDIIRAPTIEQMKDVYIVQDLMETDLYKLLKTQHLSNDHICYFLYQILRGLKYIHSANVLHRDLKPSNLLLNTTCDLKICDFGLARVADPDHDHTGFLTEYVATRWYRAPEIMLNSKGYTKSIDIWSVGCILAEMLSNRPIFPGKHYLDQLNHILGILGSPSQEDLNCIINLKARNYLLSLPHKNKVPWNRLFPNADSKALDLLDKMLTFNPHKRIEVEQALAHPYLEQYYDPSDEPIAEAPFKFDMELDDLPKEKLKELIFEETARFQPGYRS

| SMILES | Ki [1] [µM] | Ki [2] [µM] |
| --- | --- | --- |
| CCNc1ncc(CO)c(-c2c[nH]c(C(=O)NC(CO)c3ccccc3)c2)n1 (centres unmarked) [III-a-189, 4-(2-Ethylamino-5-hydroxymethyl-pyrimidin-4-yl)-1H-pyrrole-2-carboxylic acid (2-hydroxy-1-phenyl-ethyl)-amide] | < 0.1 | > 1 |
| CCNc1ncc(C)c(-c2c[nH]c(C(=O)NC(CO)c3cc(F)cc(C(F)(F)F)c3)c2)n1 (centres unmarked) [III-a-190, 4-(2-Ethylamino-5-methyl-pyrimidin-4-yl)-1H-pyrrole-2-carboxylic acid [1-(3-fluoro-5-trifluoromethyl-phenyl)-2-hydroxy-ethyl]-amide] | 0.1 to 1 | 0.1 to 1 |
| CCNc1ncc(C)c(-c2c[nH]c(C(=O)NC(CO)c3cccc(F)c3)c2)n1 (centres unmarked) [III-a-191, 4-(2-Ethylamino-5-methyl-pyrimidin-4-yl)-1H-pyrrole-2-carboxylic acid [1-(3-fluoro-phenyl)-2-hydroxy-ethyl]-amide] | < 0.1 | 0.1 to 1 |
| Cc1cnc(NC(CO)CC2CC2)nc1-c1c[nH]c(C(=O)NC(CO)c2ccccc2)c1 (centres unmarked) [III-a-193, 4-[2-(2-Cyclopropyl-1-hydroxymethyl-ethylamino)-5-methyl-pyrimidin-4-yl]-1H-pyrrole-2-carboxylic acid (2-hydroxy-1-phenyl-ethyl)-amide] | < 0.1 | 0.1 to 1 |
| Cc1cnc(Nc2cccc(C)c2C)nc1-c1c[nH]c(C(=O)NC(CO)c2ccccc2)c1 (centres unmarked) [III-a-194, 4-[2-(2,3-Dimethyl-phenylamino)-5-methyl-pyrimidin-4-yl]-1H-pyrrole-2-carboxylic acid (2-hydroxy-1-phenyl-ethyl)-amide] | < 0.1 | < 0.1 |
| Cc1cnc(NC(CO)C(C)C)nc1-c1c[nH]c(C(=O)NC(CO)c2ccccc2)c1 (centres unmarked) [III-a-196, 4-[2-(1-Hydroxymethyl-2-methyl-propylamino)-5-methyl-pyrimidin-4-yl]-1H-pyrrole-2-carboxylic acid (2-hydroxy-1-phenyl-ethyl)-amide] | < 0.1 | > 1 |
| CCNc1ncc(C)c(-c2c[nH]c(C(=O)NC(CO)c3cccc(C(F)(F)F)c3)c2)n1 (centres unmarked) [III-a-198, 4-(2-Ethylamino-5-methyl-pyrimidin-4-yl)-1H-pyrrole-2-carboxylic acid [2-hydroxy-1-(3-trifluoromethyl-phenyl)-ethyl]-amide] | < 0.1 | > 1 |
| Cc1cnc(Nc2cccc(F)c2)nc1-c1c[nH]c(C(=O)NC(CO)c2cccc(C(F)(F)F)c2)c1 (centres unmarked) [III-a-199, 4-[2-(3-Fluoro-phenylamino)-5-methyl-pyrimidin-4-yl]-1H-pyrrole-2-carboxylic acid [2-hydroxy-1-(3-trifluoromethyl-phenyl)-ethyl]-amide] | < 0.1 | < 0.1 |
| Cc1cnc(Nc2ccccc2Cl)nc1-c1c[nH]c(C(=O)NC(CO)c2cccc(C(F)(F)F)c2)c1 (centres unmarked) [III-a-200, 4-[2-(2-Chloro-phenylamino)-5-methyl-pyrimidin-4-yl]-1H-pyrrole-2-carboxylic acid [2-hydroxy-1-(3-trifluoromethyl-phenyl)-ethyl]-amide] | < 0.1 | > 1 |
| Cc1cnc(NC(CO)c2ccccc2)nc1-c1c[nH]c(C(=O)NC(CO)c2cccc(C(F)(F)F)c2)c1 (centres unmarked) [III-a-201, 4-[2-(2-Hydroxy-1-phenyl-ethylamino)-5-methyl-pyrimidin-4-yl]-1H-pyrrole-2-carboxylic acid [2-hydroxy-1-(3-trifluoromethyl-phenyl)-ethyl)-amide] | < 0.1 | 0.1 to 1 |
| COc1ccccc1C(CO)NC(=O)c1cc(-c2nc(NC3CC3)ncc2C)c[nH]1 (centres unmarked) [III-a-203, 4-(2-Cyclopropylamino-5-methyl-pyrimidin-4-yl)-1H-pyrrole-2-carboxylic acid [2-hydroxy-1-(2-methoxy-phenyl)-ethyl]-amide] | < 0.1 | 0.1 to 1 |
| CONc1ncc(C)c(-c2c[nH]c(C(=O)NC(CO)c3ccccc3)c2)n1 (centres unmarked) [III-a-206, 4-(2-Methoxyamino-5-methyl-pyrimidin-4-yl)-1H-pyrrole-2-carboxylic acid (2-hydroxy-1-phenyl-ethyl)-amide] | < 0.1 | < 0.1 |
| Cc1cnc(NOC(C)C)nc1-c1c[nH]c(C(=O)NC(CO)c2ccccc2)c1 (centres unmarked) [III-a-207, 4-(2-Isopropoxyamino-5-methyl-pyrimidin-4-yl)-1H-pyrrole-2-carboxylic acid (2-hydroxy-1-phenyl-ethyl)-amide] | < 0.1 | 0.1 to 1 |
| Cc1cccc(C(CO)NC(=O)c2cc(-c3nc(Nc4cccc(N(C)C)c4)ncc3C)c[nH]2)c1 (centres unmarked) [III-a-208] | < 0.1 | < 0.1 |
| Cc1cccc(C(CO)NC(=O)c2cc(-c3nc(Nc4ccccc4Cl)ncc3C)c[nH]2)c1 (centres unmarked) [III-a-209, 4-[2-(2-Chloro-phenylamino)-5-methyl-pyrimidin-4-yl]-1H-pyrrole-2-carboxylic acid (2-hydroxy-1-m-tolyl-ethyl)-amide] | < 0.1 | < 0.1 |
| Cc1cccc(C(CO)NC(=O)c2cc(-c3nc(NC(CO)c4ccccc4)ncc3C)c[nH]2)c1 (centres unmarked) [III-a-210, 4-[2-(2-Hydroxy-1-phenyl-ethylamino)-5-methyl-pyrimidin-4-yl]-1H-pyrrole-2-carboxylic acid (2-hydroxy-1-m-tolyl-ethyl)-amide] | < 0.1 | > 1 |
| Cc1cccc(C(CO)NC(=O)c2cc(-c3nc(Nc4cccc(C)c4C)ncc3C)c[nH]2)c1 (centres unmarked) [III-a-211, 4-[2-(2,3-Dimethyl-phenylamino)-5-methyl-pyrimidin-4-yl]-1H-pyrrole-2-carboxylic acid (2-hydroxy-1-m-tolyl-ethyl)-amide] | < 0.1 | 0.1 to 1 |
| Cc1cccc(C(CO)NC(=O)c2cc(-c3nc(Nc4cccc(F)c4)ncc3C)c[nH]2)c1 (centres unmarked) [III-a-212, 4-[2-(3-Fluoro-phenylamino)-5-methyl-pyrimidin-4-yl]-1H-pyrrole-2-carboxylic acid (2-hydroxy-1-m-tolyl-ethyl)-amide] | < 0.1 | < 0.1 |
| CC(=O)Nc1ncc(C)c(-c2c[nH]c(C(=O)NC(CO)c3ccccc3)c2)n1 (centres unmarked) [III-a-213, 4-(2-Acetylamino-5-methyl-pyrimidin-4-yl)-1H-pyrrole-2-carboxylic acid (2-hydroxy-1-phenyl-ethyl)-amide] | < 0.1 | 0.1 to 1 |
| Cc1cnc(Nc2cccnc2)nc1-c1c[nH]c(C(=O)NC(CO)c2ccccc2)c1 (centres unmarked) [III-a-215, 4-[5-Methyl-2-(pyridin-3-ylamino)-pyrimidin-4-yl]-1H-pyrrole-2-carboxylic acid (2-hydroxy-1-phenyl-ethyl)-amide] | < 0.1 | < 0.1 |
| Cc1cnc(NCC2CCCO2)nc1-c1c[nH]c(C(=O)NC(CO)c2ccccc2)c1 (centres unmarked) [III-a-216, 4-{5-Methyl-2-[(tetrahydro-furan-2-ylmethyl)-amino]-pyrimidin-4-yl}-1H-pyrrole-2-carboxylic acid (2-hydroxy-1-phenyl-ethyl)-amide] | < 0.1 | < 0.1 |
| Cc1cnc(NCC2CCCO2)nc1-c1c[nH]c(C(=O)NC(CO)c2ccccc2)c1 (centres unmarked) [III-a-217, 4-{5-Methyl-2-((tetrahydro-furan-2-ylmethyl)-amino]-pyrimidin-4-yl}-1H-pyrrole-2-carboxylic acid (2-hydroxy-1-phenyl-ethyl)-amide] | < 0.1 | < 0.1 |
| Cc1cccc(C(CO)NC(=O)c2cc(-c3nc(NC(C)CO)ncc3C)c[nH]2)c1 (centres unmarked) [III-a-222, 4-[2-(2-Hydroxy-1-methyl-ethylamino)-5-methyl-pyrimidin-4-yl]-1H-pyrrole-2-carboxylic acid (2-hydroxy-1-m-tolyl-ethyl)-amide] | < 0.1 | 0.1 to 1 |
| Cc1cccc(C(CO)NC(=O)c2cc(-c3nc(Nc4ccccc4C)ncc3C)c[nH]2)c1 (centres unmarked) [III-a-223, 4-(5-Methyl-2-o-tolylamino-pyrimidin-4-yl)-1H-pyrrole-2-carboxylic acid (2-hydroxy-1-m-tolyl-ethyl)-amide] | < 0.1 | < 0.1 |
| Cc1cnc(NOCCO)nc1-c1c[nH]c(C(=O)NC(CO)c2ccccc2)c1 (centres unmarked) [III-a-225, 4-[2-(2-Hydroxy-ethoxyamino)-5-methyl-pyrimidin-4-yl]-1H-pyrrole-2-carboxylic acid (2-hydroxy-1-phenyl-ethyl)-amide] | < 0.1 | < 0.1 |
| Cc1cnc(NC(CO)c2ccc(F)c(Cl)c2)nc1-c1c[nH]c(C(=O)NC(CO)c2ccccc2)c1 (centres unmarked) [III-a-230, 4-{2-[1-(3-Chloro-4-fluoro-phenyl)-2-hydroxy-ethylamino]-5-methyl-pyrimidin-4-yl}-1H-pyrrole-2-carboxylic acid (2-hydroxy-1-phenyl-ethyl)-amide] | < 0.1 | 0.1 to 1 |
| CCC(CO)Nc1ncc(C)c(-c2c[nH]c(C(=O)NC(CO)c3cccc(Cl)c3)c2)n1 (centres unmarked) [III-a-232, 4-[2-(1-Hydroxymethyl-propylamino)-5-methyl-pyrimidin-4-yl]-1H-pyrrole-2-carboxylic acid (1-(3-chloro-phenyl)-2-hydroxy-ethyl]-amide] | < 0.1 | 0.1 to 1 |
| Cc1cnc(NC(CO)CO)nc1-c1c[nH]c(C(=O)NC(CO)c2cccc(Cl)c2)c1 (centres unmarked) [III-a-233, 4-[2-(2-Hydroxy-1-hydroxymethyl-ethylamino)-5-methyl-pyrimidin-4-yl]-1H-pyrrole-2-carboxylic acid [1-(3-chloro-phenyl)-2-hydroxy-ethyl]-amide] | < 0.1 | > 1 |

From US7253187B2, “Heterocyclic inhibitors of ERK2 and uses thereof” (Vertex Pharmaceuticals Incorporated, priority 2001, dated 2007)
